The text below walks through data of US11512053B2, “Arginine methyltransferase inhibitors and uses thereof” (priority 2013, dated 2022).

Where two headings read alike, the source gives them in different places.

For test [1], the target named is full-length human PRMT8 isoform 1 (Homo sapiens, UniProt Q9NR22). Kind of test: PRMT8 Biochemical Assay (3H-SAM Flashplate, peptide substrate). The following applies: read-out: Biochemical IC50 PRMT8. The source says: General Materials. S-adenosylmethionine (SAM), S-adenosylhomocysteine (SAH), bicine, Tween20, dimethylsulfoxide (DMSO), bovine skin gelatin (BSG), isopropyl-β-D-thiogalactopyranoside (IPTG), and Tris(2-carboxyethyl)phosphine hydrochloride solution (TCEP) were purchased from Sigma-Aldrich at the highest level of purity possible. ^3H-SAM was purchase from American Radiolabeled Chemicals with a specific activity of 80 Ci/mmol. 384-well streptavidin Flashplates were purchased from PerkinElmer.
full-length human PRMT8 isoform 1, sequence (Q9NR22 whole entry, the tested form may be a part, canonical isoform): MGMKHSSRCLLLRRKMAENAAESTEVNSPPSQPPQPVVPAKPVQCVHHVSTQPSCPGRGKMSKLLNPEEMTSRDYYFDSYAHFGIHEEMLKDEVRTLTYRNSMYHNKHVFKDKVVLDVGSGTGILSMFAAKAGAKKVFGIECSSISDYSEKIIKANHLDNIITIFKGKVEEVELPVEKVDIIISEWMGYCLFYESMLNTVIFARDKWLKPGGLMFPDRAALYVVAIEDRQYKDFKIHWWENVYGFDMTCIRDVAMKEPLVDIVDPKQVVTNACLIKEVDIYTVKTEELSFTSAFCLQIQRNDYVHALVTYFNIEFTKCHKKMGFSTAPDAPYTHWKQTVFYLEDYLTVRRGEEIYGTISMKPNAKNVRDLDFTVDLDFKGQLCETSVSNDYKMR
Substrates. Peptide representative of human histone H4 residues 31-45 was synthesized with an N-terminal linker-affinity tag motif and a C-terminal amide cap by 21st Century Biochemicals. The peptide was purified by high-performance liquid chromatography (HPLC) to greater than 95% purity and confirmed by liquid chromatography mass spectrometry (LC-MS). The sequence was Biot-Ahx-[…]-amide (SEQ ID NO.:8).
The resulting construct encodes an N-terminal GST tag and a thrombin cleavage sequence ([…] […] […] […] SPEF) (SEQ ID NO.:9) fused directly to Met 1 of PRMT8.
Protein Expression. E. coli (BL21(DE3) Gold, Stratagene) made competent by the CaCl2) method were transformed with the PRMT8 construct and ampicillin selection. Protein over-expression was accomplished by growing the PRMT8 expressing E. coli clone and inducing expression with 0.3 mM IPTG at 16° C. The culture was grown for 12 hours, harvested by centrifugation, and stored at −80° C. for purification.
Protein Purification. […] GST-tagged PRMT8 was eluted with 50 mM Tris, 2 mM glutathione, pH 7.8. Pooled fractions were cleaved by thrombin (10U) and dialysed in buffer A. GST was removed by reloading the cleaved protein sample onto glutathione sepharose column and PRMT8 was collected in the flow-through fractions. PRMT8 was purified further by ceramic hydroxyapatite chromatography. The column was washed with 50 mM phosphate buffer, 100 mM NaCl, 5% glycerol, 5 mM β-mercaptoethanol, pH 7.8 and PRMT8 was eluted by 100 mM phosphate in the same buffer. Protein was concentrated and buffer was exchanged to 50 mM Tris, 300 mM NaCl, 10% glycerol, 5 mM β-mercaptoethanol, pH 7.8 by ultrafiltration. The purity of recovered protein was 89%.
General Procedure for PRMT8 Enzyme Assays on Peptide Substrates. The assays were all performed in a buffer consisting of 20 mM Bicine (pH=7.6), 1 mM TCEP, 0.005% BSG, and 0.002% Tween 20, prepared on the day of use. Compounds in 100% DMSO (1 ul) were spotted into a polypropylene 384-well V-bottom plates (Greiner) using a Platemate Plus outfitted with a 384-channel head (Thermo Scientific). DMSO (1 ul) was added to Columns 11, 12, 23, 24, rows A-H for the maximum signal control and 1 ul of SAH, a known product and inhibitor of PRMT8, was added to columns 11, 12, 23, 24, rows I-P for the minimum signal control. A cocktail (40 ul) containing the PRMT8 enzyme was added by Multidrop Combi (Thermo-Fisher). The compounds were allowed to incubate with PRMT8 for 30 min at room temperature, then a cocktail (10 ul) containing ^3H-SAM and peptide was added to initiate the reaction (final volume=51 ul). The final concentrations of the components were as follows: PRMT8 was 1.5 nM, ^3H-SAM was 50 nM, non-radiolabeled SAM was 550 nM, peptide was 150 nM, SAH in the minimum signal control wells was 1 mM, and the DMSO concentration was 2%. The assays were stopped by the addition of non-radiolabeled SAM (10 ul) to a final concentration of 400 uM, which dilutes the ^3H-SAM to a level where its incorporation into the peptide substrate is no longer detectable. 50 ul of the reaction in the 384-well polypropylene plate was then transferred to a 384-well Flashplate and the biotinylated peptides were allowed to bind to the streptavidin surface for at least 1 hour before being washed once with 0.1% Tween20 in a Biotek ELx405 plate washer. […]

The target of test [2] is full-length human PRMT1 isoform 1 (GST-tagged) (Homo sapiens, UniProt Q99873). Kind of test: PRMT1 Biochemical Assay (3H-SAM Flashplate, peptide substrate). An excerpt: General Materials. S-adenosylmethionine (SAM), S-adenosylhomocysteine (SAH), bicine, Tween20, dimethylsulfoxide (DMSO), bovine skin gelatin (BSG), and Tris(2-carboxyethyl)phosphine hydrochloride solution (TCEP) were purchased from Sigma-Aldrich at the highest level of purity possible. ^3H-SAM was purchase from American Radiolabeled Chemicals with a specific activity of 80 Ci/mmol. 384-well streptavidin Flashplates were purchased from PerkinElmer.
full-length human PRMT1 isoform 1 (GST-tagged), sequence (Q99873 with tags, fused parts or gaps): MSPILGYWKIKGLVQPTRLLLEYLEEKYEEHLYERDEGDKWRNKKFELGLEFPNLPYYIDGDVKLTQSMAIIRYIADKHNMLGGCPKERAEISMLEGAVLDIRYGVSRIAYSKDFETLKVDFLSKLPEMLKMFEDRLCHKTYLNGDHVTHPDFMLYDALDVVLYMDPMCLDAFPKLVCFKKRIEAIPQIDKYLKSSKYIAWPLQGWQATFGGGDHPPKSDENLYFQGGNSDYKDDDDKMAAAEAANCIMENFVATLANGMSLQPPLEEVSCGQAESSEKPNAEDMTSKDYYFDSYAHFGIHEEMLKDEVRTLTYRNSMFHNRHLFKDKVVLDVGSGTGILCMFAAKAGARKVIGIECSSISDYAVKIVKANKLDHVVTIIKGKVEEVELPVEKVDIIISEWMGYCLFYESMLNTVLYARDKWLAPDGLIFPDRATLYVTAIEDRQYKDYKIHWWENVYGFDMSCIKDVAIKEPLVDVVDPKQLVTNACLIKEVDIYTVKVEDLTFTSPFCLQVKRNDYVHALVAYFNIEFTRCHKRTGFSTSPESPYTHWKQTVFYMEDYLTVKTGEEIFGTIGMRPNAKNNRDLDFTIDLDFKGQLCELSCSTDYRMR
Protein Expression. Recombinant baculovirus were generated according to Bac-to-Bac kit instructions (Life Technologies). […] Infections were carried out at 27° C. for 48 hours, harvested by centrifugation, and stored at −80° C. for purification.
Protein Purification. […] GST-tagged PRMT1 was eluted with 50 mM Tris, 2 mM glutathione, pH 7.8, dialysed in buffer A and concentrated to 1 mg/mL.
General Procedure for PRMT1 Enzyme Assays on Peptide Substrates. The assays were all performed in a buffer consisting of 20 mM Bicine (pH=7.6), 1 mM TCEP, 0.005% BSG, and 0.002% Tween 20, prepared on the day of use. […] DMSO (1 ul) was added to Columns 11, 12, 23, 24, rows A-H for the maximum signal control and 1 ul of SAH, a known product and inhibitor of PRMT1, was added to columns 11, 12, 23, 24, rows I-P for the minimum signal control. A cocktail (40 ul) containing the PRMT1 enzyme was added by Multidrop Combi (Thermo-Fisher). The compounds were allowed to incubate with PRMT1 for 30 min at room temperature, then a cocktail (10 ul) containing SAM and peptide was added to initiate the reaction (final volume=51 ul). […] The assays were stopped by the addition of non-radiolabeled SAM (10 ul) to a final concentration of 300 uM, which dilutes the ^3H-SAM to a level where its incorporation into the peptide substrate is no longer detectable. 50 ul of the reaction in the 384-well polypropylene plate was then transferred to a 384-well Flashplate and the biotinylated peptides were allowed to bind to the streptavidin surface for at least 1 hour before being washed once with 0.1% Tween20 in a Biotek ELx405 plate washer. The plates were then read in a PerkinElmer TopCount plate reader to measure the quantity of ^3H-labeled peptide bound to the Flashplate surface, measured as disintegrations per minute (dpm) or alternatively, referred to as counts per minute (cpm).
Where dpm=disintegrations per minute, cmpd=signal in assay well, and min and max are the respective minimum and maximum signal controls.
Where top and bottom are the normally allowed to float, but may be fixed at 100 or 0 respectively in a 3-parameter fit. The Hill Coefficient normally allowed to float but may also be fixed at 1 in a 3-parameter fit. Y is the % inhibition and X is the compound concentration.

[3] abbreviates: single experiment or average of multiple experiments.

In general, IC50 refers to the concentration that gives 50% inhibition. Consider `CCC(=O)N(CC1CCOCC1)[C@H]1CC[C@H](c2n[nH]cc2CN(C)CCNC)CC1` [Compound 109], for which the IC50 was below 100 nM in test [1], 56 nM in test [1] (setting [3]), below 100 nM in test [2] and 26.7 nM in test [2] (setting [3]).

Regarding `CNCCN(C)Cc1c[nH]nc1C1CCC(=O)N(CCc2ccccc2)C1` (stereo not shown) [Compound 110], the 50% inhibitory concentration (IC50) in test [1] is below 100 nM; in test [1] (setting [3]) it was 42.9 nM; in test [2], below 100 nM; in test [2] (setting [3]), 13.1 nM.

Take `CNCCN(C)Cc1c[nH]nc1[C@H]1CC[C@]2(CCN(Cc3ccc(OCCOC)cc3)C2=O)CC1` [Compound 111]: the concentration for half-maximal inhibition (IC50) is below 100 nM in test [1], 59.9 nM in test [1] (setting [3]), below 100 nM in test [2] and 22.4 nM in test [2] (setting [3]).

With `CNCCN(C)Cc1c[nH]nc1C1CCCC(COCCOC)C1` (stereo not shown) [Compound 112], the IC50 in test [1] was below 100 nM; in test [1] (setting [3]) it was 69.2 nM; in test [2], below 100 nM; in test [2] (setting [3]), 18.9 nM.

For the compound `CNCCN(C)Cc1c[nH]nc1C1CCCC(COCCC(O)CO)C1` (stereo not shown) [Compound 113], the IC50 in test [1] was 101 to 1000 nM; in test [1] (setting [3]) it was 119 nM; in test [2] it was below 100 nM; in test [2] (setting [3]), 57.2 nM.

Turning to `CNCCN(C)Cc1c[nH]nc1C1CCC(N(CC(C)C)C(=O)CC2CCOCC2)CC1` (stereo not shown) [Compound 114], the IC50 in test [1] is 101 to 1000 nM; in test [1] (setting [3]) it was 340 nM; in test [2], 101 to 1000 nM; in test [2] (setting [3]), 101 nM.

Take `CNCCN(C)Cc1c[nH]nc1C1CCC(=O)N(Cc2ccccc2)C1` (stereo not shown) [Compound 115]: the IC50 in test [1] was 101 to 1000 nM; in test [1] (setting [3]), 196 nM; in test [2], below 100 nM; in test [2] (setting [3]), 88.7 nM.

In the case of `CNCCN(C)Cc1c[nH]nc1[C@H]1CC[C@H](OCCOc2ccc(OCCOC)cc2)CC1` [Compound 116], the IC50 in test [1] was below 100 nM; in test [1] (setting [3]) it was 11.8 nM; in test [2], below 100 nM; in test [2] (setting [3]), 9.8 nM.

On to `CNCCN(C)Cc1c[nH]nc1C1CCC(=O)N(CCC(C)C)C1` (stereo not shown) [Compound 117], for which the IC50 in test [1] is 101 to 1000 nM; in test [1] (setting [3]) it was 143 nM; in test [2], below 100 nM; in test [2] (setting [3]), 38.6 nM.

For `CNCCN(C)Cc1c[nH]nc1C1CC(OC(C)C)CC(OC(C)C)C1` (stereo not shown) [Compound 118], the IC50 was above 10000 nM in test [1], above 10000 nM in test [1] (setting [3]), 1010 to 3000 nM in test [2] and 2160 nM in test [2] (setting [3]).

In the case of `CCOCC1CC(COCC)CC(c2n[nH]cc2CN(C)CCNC)C1` (stereo not shown) [Compound 119], the IC50 in test [1] was 101 to 1000 nM; in test [1] (setting [3]), 728 nM; in test [2] it was 101 to 1000 nM; in test [2] (setting [3]), 124 nM.

For the compound `CNCCN(C)Cc1c[nH]nc1[C@H]1CC[C@@]2(CCN(Cc3ccc(OCCOC)cc3)C2=O)CC1` [Compound 120], the IC50 in test [1] was below 100 nM; in test [1] (setting [3]) it was 25.1 nM; in test [2], below 100 nM; in test [2] (setting [3]) it was 10.1 nM.

For the compound `CNCCN(C)Cc1c[nH]nc1C1CCC2(CC1)OC(C)CC(C)O2` (stereo not shown) [Compound 121], the IC50 is below 100 nM in test [1], 32.6 nM in test [1] (setting [3]), below 100 nM in test [2] and 15.2 nM in test [2] (setting [3]).

As to `CNCCN(C)Cc1c[nH]nc1C1CC(OCC(C)C)CC(OCC(C)C)C1` (stereo not shown) [Compound 122], the IC50 is 3010 to 10000 nM in test [1], 8370 nM in test [1] (setting [3]), 101 to 1000 nM in test [2] and 421 nM in test [2] (setting [3]).

Regarding `CNCCN(C)Cc1c[nH]nc1[C@H]1CC[C@]2(CCN(Cc3ccc(F)cc3)C2=O)CC1` [Compound 123], the 50% inhibitory concentration (IC50) in test [1] is below 100 nM; in test [1] (setting [3]), 24.7 nM; in test [2] it was below 100 nM; in test [2] (setting [3]), 8.8 nM.

As for `CNCCN(C)Cc1c[nH]nc1[C@H]1CC[C@]2(CCN(CC(C)C)C2=O)CC1` [Compound 124], the IC50 in test [1] was below 100 nM; in test [1] (setting [3]), 10.8 nM; in test [2] it was below 100 nM; in test [2] (setting [3]), 6.4 nM.

Turning to `CNCCN(C)Cc1c[nH]nc1[C@H]1CC[C@@]2(CCN(Cc3ccc(F)cc3)C2=O)CC1` [Compound 125], the IC50 in test [1] was below 100 nM; in test [1] (setting [3]), 9 nM; in test [2] it was below 100 nM; in test [2] (setting [3]), 5.3 nM.

Consider `CNCCN(C)Cc1c[nH]nc1[C@H]1CC[C@@]2(CCN(Cc3cc(F)cc(F)c3)C2=O)CC1` [Compound 126], for which the IC50 in test [1] is below 100 nM; in test [1] (setting [3]), 6.5 nM; in test [2], below 100 nM; in test [2] (setting [3]), 4 nM.

Turning to `CNCCN(C)Cc1c[nH]nc1[C@H]1CC[C@@]2(CCN(Cc3ccccc3)C2=O)CC1` [Compound 127], the IC50 in test [1] was below 100 nM; in test [1] (setting [3]), 47.8 nM; in test [2], below 100 nM; in test [2] (setting [3]), 16.5 nM.

Consider `CNCCN(C)Cc1c[nH]nc1[C@H]1CC[C@]2(CCN(Cc3ccccc3)C2=O)CC1` [Compound 128], for which the IC50 in test [1] was below 100 nM; in test [1] (setting [3]), 8.2 nM; in test [2] it was below 100 nM; in test [2] (setting [3]), 5.2 nM.

For `CNCCN(C)Cc1c[nH]nc1[C@H]1CC[C@@]2(CCN(CC(C)C)C2=O)CC1` [Compound 129], the IC50 in test [1] is below 100 nM; in test [1] (setting [3]), 83.7 nM; in test [2], below 100 nM; in test [2] (setting [3]), 23.6 nM.

With `CNCCN(C)Cc1c[nH]nc1C1CCC2(CC1)CCC(F)(F)CC2` [Compound 130], the IC50 in test [1] is below 100 nM; in test [1] (setting [3]), 4.5 nM; in test [2], below 100 nM; in test [2] (setting [3]) it was 3.4 nM.
